Results taken from patent publication US7973061B2, “Anaplastic lymphoma kinase modulators and methods of use” (Exelixis, Inc., priority 2004, dated 2011).

Molecular target: T1, ALK (baculovirus expressed human ALK kinase domain F1098-K1410) (Homo sapiens, UniProt Q9UM73)
T1 construct: human ALK kinase domain F1098-K1410; made in house
Assay: biochemical
Settings: 1 μM ATP, 4 μM poly-AEKY, 12 nM ALK, 2 hours at ambient temperature; read-out: ALK IC50
Method in brief: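 Inhibitors were tested at 10 concentrations, and IC50 was derived from a sigmoidal fit (Min, Max, Hill slope). Kinase activity was measured as percent ATP left after a 2 h reaction at room temperature, detected by luciferase-luciferin chemiluminescence. The ATP level was set close to KM for the ALK kinase domain F1098-K1410.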

T1 sequence (Q9UM73 1098-1410): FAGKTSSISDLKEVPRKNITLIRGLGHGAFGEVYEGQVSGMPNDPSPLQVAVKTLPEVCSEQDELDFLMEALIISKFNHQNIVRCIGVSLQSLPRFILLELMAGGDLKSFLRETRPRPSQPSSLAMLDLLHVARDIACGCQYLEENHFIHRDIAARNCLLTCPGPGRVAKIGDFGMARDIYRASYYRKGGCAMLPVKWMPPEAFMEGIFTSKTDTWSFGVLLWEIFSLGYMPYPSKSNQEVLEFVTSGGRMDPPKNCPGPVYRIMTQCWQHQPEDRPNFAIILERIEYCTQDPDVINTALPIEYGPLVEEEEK

SMILES	IC50 [µM]
NCc1nc(C(=O)NCCc2ccccc2F)cs1 [Entry 305, 2-(aminomethyl)-N-[2-(2-fluorophenyl)ethyl]-1,3-thiazole-4-carboxamide]	> 2
O=C(COc1ccc(OC(F)(F)F)cc1)NCc1nc(C(=O)N[C@@H]2CCC[C@H]2OCc2ccccc2)cs1 [Entry 218, N-{(1R,2R)-2-[(phenylmethyl)oxy]cyclopentyl}-2-({[({4-[(trifluoromethyl)oxy]phenyl}oxy)acetyl]amino}methyl)-1,3-thiazole-4-carboxamide]	0.05 to 0.5
O=C(COc1ccc(OC(F)(F)F)cc1)NCc1nc(C(=O)NCc2cccc(Cl)c2)cs1 [Entry 119, N-[(3-chlorophenyl)methyl]-2-({[({4-[(trifluoromethyl)oxy]phenyl}oxy)acetyl]amino}methyl)-1,3-thiazole-4-carboxamide]	0.05 to 0.5
CSCCCNC(=O)c1csc(CNC(=O)COc2ccc(OC(F)(F)F)cc2)n1 [Entry 149, N-[3-(methylthio)propyl]-2-({[({4-[(trifluoromethyl)oxy]phenyl}oxy)acetyl]amino}methyl)-1,3-thiazole-4-carboxamide]	0.05 to 0.5
CC(C)c1ccc(NC(=O)NCc2nc(C(=O)NCCc3cccc(Cl)c3)cs2)cc1 [Entry 25, N-[2-(3-chlorophenyl)ethyl]-2-{[({[4-(1-methylethyl)phenyl]amino}carbonyl)amino]methyl}-1,3-thiazole-4-carboxamide]	< 0.05
O=C(COc1ccc(Br)cc1)NCc1nc(C(=O)NCCc2ccccc2F)cs1 [Entry 239, 2-[({[(4-bromophenyl)oxy]acetyl}amino)methyl]-N-[2-(2-fluorophenyl)ethyl]-1,3-thiazole-4-carboxamide]	0.5 to 2
O=C(COc1ccc(OC(F)(F)F)cc1)NCc1nc(C(=O)NCCN2CCCC2)cs1 [Entry 274, N-(2-pyrrolidin-1-ylethyl)-2-({[({4-[(trifluoromethyl)oxy]phenyl}oxy)acetyl]amino}methyl)-1,3-thiazole-4-carboxamide]	0.5 to 2
O=C(C/C=C/c1ccccc1)NCc1nc(C(=O)NCCc2cccc(Cl)c2)cs1 [Entry 208, N-[2-(3-chlorophenyl)ethyl]-2-({[(3E)-4-phenylbut-3-enoyl]amino}methyl)-1,3-thiazole-4-carboxamide]	0.05 to 0.5
CCC(CC)NC(=O)c1csc(CNC(=O)COc2ccc(OC(F)(F)F)cc2)n1 [Entry 171, N-(1-ethylpropyl)-2-({[({4-[(trifluoromethyl)oxy]phenyl}oxy)acetyl]amino}methyl)-1,3-thiazole-4-carboxamide]	0.05 to 0.5
O=C(COc1ccc(OC(F)(F)F)cc1)NCc1nc(C(=O)NCc2ccc(Cl)c(Cl)c2)co1 [Entry 291, N-[(3,4-dichlorophenyl)methyl]-2-({[({4-[(trifluoromethyl)oxy]phenyl}oxy)acetyl]amino}methyl)-1,3-oxazole-4-carboxamide]	0.5 to 2
COc1ccccc1CCNC(=O)c1csc(CNC(=O)COc2ccc(OC(F)(F)F)cc2)n1 [Entry 80, N-{2-[2-(methyloxy)phenyl]ethyl}-2-({[({4-[(trifluoromethyl)oxy]phenyl}oxy)acetyl]amino}methyl)-1,3-thiazole-4-carboxamide]	0.05 to 0.5
COc1ccc(CNC(=O)c2csc(CNC(=O)COc3ccc(OC(F)(F)F)cc3)n2)c(OC)c1 [Entry 120, N-{[2,4-bis(methyloxy)phenyl]methyl}-2-({[({4-[(trifluoromethyl)oxy]phenyl}oxy)acetyl]amino}methyl)-1,3-thiazole-4-carboxamide]	0.05 to 0.5
Cc1ccc([C@H](C)NC(=O)c2csc(CNC(=O)COc3ccc(OC(F)(F)F)cc3)n2)cc1 [Entry 162, N-[(1S)-1-(4-methylphenyl)ethyl]-2-({[({4-[(trifluoromethyl)oxy]phenyl}oxy)acetyl]amino}methyl)-1,3-thiazole-4-carboxamide]	0.05 to 0.5
COc1cccc(CNC(=O)c2csc(CNC(=O)Cc3ccc4ccccc4c3)n2)c1OC [Entry 256, N-{[2,3-bis(methyloxy)phenyl]methyl}-2-{[(naphthalen-2-ylacetyl)amino]methyl}-1,3-thiazole-4-carboxamide]	0.5 to 2
O=C(COc1ccc(Cl)cc1)NCc1nc(C(=O)NCCc2ccccc2F)cs1 [Entry 215, 2-[({[(4-chlorophenyl)oxy]acetyl}amino)methyl]-N-[2-(2-fluorophenyl)ethyl]-1,3-thiazole-4-carboxamide]	0.05 to 0.5
CC(NC(=O)COc1ccc(OC(F)(F)F)cc1)c1nc(C(=O)NCCc2cccc(Cl)c2)cs1 (stereo not drawn) [Entry 1, N-[2-(3-chlorophenyl)ethyl]-2-(1-{[({4-[(trifluoromethyl)oxy]phenyl}oxy)acetyl]amino}ethyl)-1,3-thiazole-4-carboxamide]	< 0.05
CC(C)c1ccc(OCC(=O)NCc2nc(C(=O)NCCc3ccccc3F)cs2)cc1 [Entry 55, N-[2-(2-fluorophenyl)ethyl]-2-{[({[4-(1-methylethyl)phenyl]oxy}acetyl)amino]methyl}-1,3-thiazole-4-carboxamide]	0.05 to 0.5

SMILES	IC50 [µM]
COc1ccccc1CNC(=O)c1csc(CNC(=O)COc2ccc(C(C)C)cc2)n1 [Entry 118, 2-{[({[4-(1-methylethyl)phenyl]oxy}acetyl)amino]methyl}-N-{[2-(methyloxy)phenyl]methyl}-1,3-thiazole-4-carboxamide]	0.05 to 0.5
COc1ccccc1CNC(=O)c1csc(CNC(=O)COc2ccc(C(C)(C)C)cc2)n1 [Entry 22, 2-{[({[4-(1,1-dimethylethyl)phenyl]oxy}acetyl)amino]methyl}-N-{[2-(methyloxy)phenyl]methyl}-1,3-thiazole-4-carboxamide]	< 0.05
O=C(COc1ccc(OC(F)(F)F)cc1)NCc1nc(C(=O)NCCc2c[nH]c3ccccc23)cs1 [Entry 45, N-[2-(1H-indol-3-yl)ethyl]-2-({[({4-[(trifluoromethyl)oxy]phenyl}oxy)acetyl]amino}methyl)-1,3-thiazole-4-carboxamide]	0.05 to 0.5
CC(C)CCNC(=O)c1csc(CNC(=O)COc2ccc(OC(F)(F)F)cc2)n1 [Entry 138, N-(3-methylbutyl)-2-({[({4-[(trifluoromethyl)oxy]phenyl}oxy)acetyl]amino}methyl)-1,3-thiazole-4-carboxamide]	0.05 to 0.5
Cc1ccc(N2CCN(C(=O)c3csc(CNC(=O)COc4ccc(OC(F)(F)F)cc4)n3)CC2C)cc1 (stereo not drawn) [Entry 243, N-[(4-{[3-methyl-4-(4-methylphenyl)piperazin-1-yl]carbonyl}-1,3-thiazol-2-yl)methyl]-2-({4-[(trifluoromethyl)oxy]phenyl}oxy)acetamide]	0.5 to 2
O=C(COc1ccc(OC(F)(F)F)cc1)NCc1nc(C(=O)NCC(c2ccccc2)c2ccccc2)cs1 [Entry 18, N-(2,2-diphenylethyl)-2-({[({4-[(trifluoromethyl)oxy]phenyl}oxy)acetyl]amino}methyl)-1,3-thiazole-4-carboxamide]	< 0.05
COc1cccc(CNC(=O)c2csc(CNC(=O)COc3ccc(OC(F)(F)F)cc3)n2)c1 [Entry 154, N-{[3-(methyloxy)phenyl]methyl}-2-({[({4-[(trifluoromethyl)oxy]phenyl}oxy)acetyl]amino}methyl)-1,3-thiazole-4-carboxamide]	0.05 to 0.5
CC(C)CCCC(C)NC(=O)c1csc(CNC(=O)COc2ccc(OC(F)(F)F)cc2)n1 (stereo not drawn) [Entry 212, N-(1,5-dimethylhexyl)-2-({[({4-[(trifluoromethyl)oxy]phenyl}oxy)acetyl]amino}methyl)-1,3-thiazole-4-carboxamide]	0.05 to 0.5
Cc1ccc(Cl)cc1CNC(=O)c1csc(CNC(=O)COc2ccc(OC(F)(F)F)cc2)n1 [Entry 39, N-[(5-chloro-2-methylphenyl)methyl]-2-({[({4-[(trifluoromethyl)oxy]phenyl}oxy)acetyl]amino}methyl)-1,3-thiazole-4-carboxamide]	0.05 to 0.5
Cc1ccc(C)c(CCNC(=O)c2csc(CNC(=O)COc3ccc(OC(F)(F)F)cc3)n2)c1 [Entry 33, N-[2-(2,5-dimethylphenyl)ethyl]-2-({[({4-[(trifluoromethyl)oxy]phenyl}oxy)acetyl]amino}methyl)-1,3-thiazole-4-carboxamide]	0.05 to 0.5
O=C(COc1ccc(OC(F)(F)F)cc1)NCc1nc(C(=O)NCCCN2CCCC2=O)cs1 [Entry 286, N-[3-(2-oxopyrrolidin-1-yl)propyl]-2-({[({4-[(trifluoromethyl)oxy]phenyl}oxy)acetyl]amino}methyl)-1,3-thiazole-4-carboxamide]	0.5 to 2
CC(C)(C)c1ccc(OCC(=O)NCc2nc(C(=O)NCCc3cccc(Cl)c3)cs2)cc1 [Entry 67, N-[2-(3-chlorophenyl)ethyl]-2-{[({[4-(1,1-dimethylethyl)phenyl]oxy}acetyl)amino]methyl}-1,3-thiazole-4-carboxamide]	0.05 to 0.5
Cc1ccc(F)cc1CNC(=O)c1csc(CNC(=O)COc2ccc(OC(F)(F)F)cc2)n1 [Entry 47, N-[(5-fluoro-2-methylphenyl)methyl]-2-({[({4-[(trifluoromethyl)oxy]phenyl}oxy)acetyl]amino}methyl)-1,3-thiazole-4-carboxamide]	0.05 to 0.5
CCOc1cc(CCNC(=O)c2coc(CNC(=O)COc3ccc(OC(F)(F)F)cc3)n2)ccc1OC [Entry 250, N-{2-[3-(ethyloxy)-4-(methyloxy)phenyl]ethyl}-2-({[({4-[(trifluoromethyl)oxy]phenyl}oxy)acetyl]amino}methyl)-1,3-oxazole-4-carboxamide]	0.5 to 2
O=C(NCCc1ccccc1F)c1csc(CNC(=O)c2cccnc2Oc2ccc(Cl)cc2)n1 [Entry 129, 2-[(4-chlorophenyl)oxy]-N-{[4-({[2-(2-fluorophenyl)ethyl]amino}carbonyl)-1,3-thiazol-2-yl]methyl}pyridine-3-carboxamide]	0.05 to 0.5
O=C(COc1ccc(OC(F)(F)F)cc1)NCc1nc(C(=O)NCc2ccc(F)cc2)cs1 [Entry 206, N-[(4-fluorophenyl)methyl]-2-({[({4-[(trifluoromethyl)oxy]phenyl}oxy)acetyl]amino}methyl)-1,3-thiazole-4-carboxamide]	0.05 to 0.5
